We go through 24 compounds from patent US9029405B2, “5-(biphenyl-4-yl)-3-phenyl-1,2,4-oxadiazolyl derivatives as ligands on the sphingosine 1-phosphate(SIP)receptors” (Merck Serono S.A., priority 2010, dated 2015).

In one assay the target is S1P3 (Homo sapiens, UniProt Q99500). In words: Receptor binding assay, [33P]sphingosine 1-phosphate competition, membranes of CHO cells expressing S1P3. A digest of the protocol: (§1)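 SPA competition on CHO membranes with [33P]S1P at 30 pM (S1P1) or 15 pM (S1P3), in 50 mM HEPES pH 7.5, 5 mM MgCl2, 100 mM NaCl, 0.4% fatty acid-free BSA, 60 min at RT. Non-specific binding defined by 1000-fold unlabeled S1P; Ki values reported.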
Sequence of S1P3 (Q99500 whole entry, species assumed): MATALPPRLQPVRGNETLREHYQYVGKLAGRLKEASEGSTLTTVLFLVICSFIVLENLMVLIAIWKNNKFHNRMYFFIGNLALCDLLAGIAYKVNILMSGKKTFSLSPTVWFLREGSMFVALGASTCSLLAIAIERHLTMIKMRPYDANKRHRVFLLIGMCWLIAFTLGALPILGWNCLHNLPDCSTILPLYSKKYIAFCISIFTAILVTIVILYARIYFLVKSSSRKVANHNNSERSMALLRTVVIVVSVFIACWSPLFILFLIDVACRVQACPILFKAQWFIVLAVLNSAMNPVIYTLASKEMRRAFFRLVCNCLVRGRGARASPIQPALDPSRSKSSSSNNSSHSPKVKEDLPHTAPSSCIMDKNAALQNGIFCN

Assay [1] has as its target T1, S1P1 (Homo sapiens, UniProt P21453). In words: S1P1 internalization assay in S1P1-U2OS cells (cell imaging). The format is cell-based. The arrangement: host or cells: U2OS (human bone osteosarcoma epithelial cells). As to conditions: U2OS cells expressing S1P1-EGFP, 384-well format. The method in brief: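 U2OS cells stably expressing human S1P1-EGFP, serum-starved 2 h in medium with 0.1% fatty-acid-free BSA, then compound 1 h at 37° C. After fixation and Hoechst nuclear stain, receptor internalization imaged as EGFP spot count per nucleus.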
Target sequence in this assay (P21453 whole entry): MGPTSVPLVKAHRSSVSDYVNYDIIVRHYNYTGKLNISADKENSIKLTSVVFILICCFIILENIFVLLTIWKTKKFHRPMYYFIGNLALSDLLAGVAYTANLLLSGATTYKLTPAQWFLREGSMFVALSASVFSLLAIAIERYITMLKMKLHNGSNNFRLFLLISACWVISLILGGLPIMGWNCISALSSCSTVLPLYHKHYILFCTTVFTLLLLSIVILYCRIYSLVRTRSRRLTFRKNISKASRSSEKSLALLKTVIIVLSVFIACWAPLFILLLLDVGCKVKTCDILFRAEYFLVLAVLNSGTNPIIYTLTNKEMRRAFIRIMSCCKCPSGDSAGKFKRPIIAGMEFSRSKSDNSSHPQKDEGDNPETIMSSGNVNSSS

Assay [2] concerns the target T1, S1P1. In words: Receptor binding assay, [33P]sphingosine 1-phosphate competition, membranes of CHO cells expressing S1P1. The method in brief: as §1
Target sequence in this assay (P21453 whole entry, species assumed): as the sequence (P21453 whole entry) above
Setting [3] is: 96 well plate, read-out: S1P3 Binding Ki [M] (96 well plate).
Setting [4] is: 384 well plate, read-out: S1P3 Binding Ki [M] (384 well plate).
[5] abbreviates: 96 well plate, read-out: S1P1 Binding Ki [M] (96 well plate).
Setting [6] is: 384 well plate, read-out: S1P1 Binding Ki [M] (384 well plate).

Molecules are shown by their SMILES. Counter-ions that a name gives are not always drawn. Like-named read-outs stand apart in the source and are kept apart here.

As usually defined, the Ki is a dissociation constant, usually derived from enzyme kinetics or from competition with a known ligand. For orientation: EC50 means the concentration needed to bring the measured effect to its halfway point. A low value points to an effect from little substance. For the compound `Cc1ccccc1-c1ccc(-c2nc(-c3ccc([C@@H](C)NCC(=O)O)cc3)no2)cc1C(F)(F)F` [Example 22, N-[(1R)-1-(4-{5-[2′-methyl-2-(trifluoromethyl)biphenyl-4-yl]-1,2,4-oxadiazol-3-yl}phenyl)ethyl]glycine, hydrochloride salt], the Ki on S1P3 (setting [3]) is 5.98e-07 M; on S1P3 (setting [4]) it was 4.7e-07 M; at S1P1 [2] (setting [5]), 4.14e-10 M; at S1P1 [2] (setting [6]), 1.72e-09 M. Further, the EC50 at S1P1 [1] stood at 6.51 nM.
On the same counts, the results for `COCc1cc(-c2nc(-c3ccc([C@@H](C)N[C@H](C)C(=O)O)cc3)no2)ccc1-c1ccccc1C` [Example 4, N-[(1R)-1-(4-{5-[2-(methoxymethyl)-2′-methylbiphenyl-4-yl]-1,2,4-oxadiazol-3-yl}phenyl)ethyl]-D-alanine, hydrochloride salt] are 2.2e-06 M, 8.63e-07 M, 1.45e-10 M, 9.18e-10 M and 2 nM.
As to `Cc1cc(-c2nc(-c3ccc(C(C)NCC(=O)O)cc3)no2)ccc1-c1ccccc1C(F)(F)F` (stereo not drawn) [Example 23, N-[1-(4-{5-[2-methyl-2′-(trifluoromethyl)biphenyl-4-yl]-1,2,4-oxadiazol-3-yl}phenyl)ethyl]glycine, hydrochloride salt], the results for the Ki at S1P3 (setting [4]) and at S1P1 [2] (setting [6]) were 7.05e-06 M and 1.71e-09 M, respectively. Further, on S1P1 [1], the response was half-maximal at 21.3 nM (EC50).
Consider `COCc1cc(-c2nc(-c3ccc([C@@H](C)NCC(=O)O)cc3)no2)ccc1-c1ccccc1C` [Example 9, N-[(1R)-1-(4-{5-[2-(methoxymethyl)-2′-methylbiphenyl-4-yl]-1,2,4-oxadiazol-3-yl}phenyl)ethyl]glycine, hydrochloride salt], for which the Ki at S1P3 (setting [3]) was 7.7e-07 M; on S1P3 (setting [4]), 4.94e-07 M; on S1P1 [2] (setting [5]) it was 1.75e-10 M; on S1P1 [2] (setting [6]) it was 1.11e-09 M. On S1P1 [1], a half-maximal response (EC50) required 4.34 nM.
On to `CC[C@H](NCc1ccc(-c2noc(-c3ccc(-c4ccccc4C)c(C(F)(F)F)c3)n2)cc1)C(=O)O` [Example 54, (2S)-2-(4-(5-(2′-methyl-2-(trifluoromethyl)biphenyl-4-yl)-1,2,4-oxadiazol-3-yl)benzylamino)butanoic acid], for which the Ki on S1P3 (setting [4]) amounted to 6.69e-06 M; at S1P1 [2] (setting [6]), 7.95e-09 M. The concentration giving a half-maximal response (EC50) at S1P1 [1] was 39.7 nM.
On to `Cc1ccccc1-c1ccc(-c2nc(-c3ccc(C(C)NCC(=O)O)cc3)no2)cc1C(F)(F)F` (stereo not drawn) [Example 32, N-[1-(4-{5-[2′-methyl-2-(trifluoromethyl)biphenyl-4-yl]-1,2,4-oxadiazol-3-yl}phenyl)ethyl]glycine, hydrochloride salt], for which the inhibitory constant (Ki) at S1P3 (setting [4]) was 4.33e-07 M; at S1P1 [2] (setting [6]), 1.69e-09 M. For the same compound, the EC50 at S1P1 [1] turned out to be 7.58 nM.
On the same counts, the results for `Cc1ccccc1-c1ccc(-c2nc(-c3ccc(CN(C)C(C)(C)C(=O)O)cc3)no2)cc1C(F)(F)F` [Example 56] are 8.54e-06 M, 4.13e-09 M and 57.8 nM.
As for `COCc1cc(-c2nc(-c3ccc(CN(C)C(C)(C)C(=O)O)c(F)c3)no2)ccc1-c1ccccc1C` [Example 43, N-(2-fluoro-4-{5-[2-(methoxymethyl)-2′-methylbiphenyl-4-yl]-1,2,4-oxadiazol-3-yl}benzyl)-N,2-dimethylalanine, hydrochloride salt], the Ki on S1P3 (setting [3]) was determined as 3.15e-06 M; on S1P3 (setting [4]), 8.4e-07 M; at S1P1 [2] (setting [5]), 6.3e-10 M; on S1P1 [2] (setting [6]) it was 2.32e-09 M. On S1P1 [1], this compound had an EC50 of 24.1 nM.
`Cc1ccccc1-c1ccc(-c2nc(-c3ccc(CNC4(C(=O)O)CCCC4)cc3)no2)cc1C(F)(F)F` [Example 59]: the Ki on S1P3 (setting [4]) was over 2e-05 M; on S1P1 [2] (setting [6]) it was 6.83e-09 M. At S1P1 [1], this compound showed a 50% effective concentration (EC50) of 44.4 nM.
`Cc1ccccc1-c1ccc(-c2nc(-c3ccc(C(C)N(C)[C@@H](C)C(=O)O)cc3)no2)cc1C(F)(F)F` (stereo partly drawn) [Example 39, N-methyl-N-[1-(4-{5-[2′-methyl-2-(trifluoromethyl)biphenyl-4-yl]-1,2,4-oxadiazol-3-yl}phenyl)ethyl]alanine]: the Ki was found to be 3.18e-06 M at S1P3 (setting [4]) and 4.34e-09 M at S1P1 [2] (setting [6]). This compound showed an EC50 on S1P1 [1] of 20.9 nM.
Regarding `Cc1ccccc1-c1ccc(-c2nc(-c3ccc([C@H](C)NCC(=O)O)cc3)no2)cc1C(F)(F)F` [Example 21, N-[(1S)-1-(4-{5-[2′-methyl-2-(trifluoromethyl)biphenyl-4-yl]-1,2,4-oxadiazol-3-yl}phenyl)ethyl]glycine, hydrochloride salt], the Ki on S1P3 (setting [4]) was 1.21e-06 M; on S1P1 [2] (setting [6]) it was 2.19e-09 M. Moreover, on S1P1 [1], the EC50 was found to be 11.2 nM.
In the case of `Cc1ccccc1-c1ccc(-c2nc(-c3ccc(CN[C@H](C)C(=O)O)cc3)no2)cc1C(F)(F)F` [Example 68], the figures for the Ki at S1P3 (setting [4]) and at S1P1 [2] (setting [6]) were 7.57e-06 M and 2.47e-09 M, respectively. The same compound displayed an EC50 at S1P1 [1] of 20.5 nM.
For `Cc1ccccc1-c1ccc(-c2nc(-c3cccc(C(C)NCC(=O)O)c3)no2)cc1C(F)(F)F` (stereo not drawn) [Example 42, N-[1-(3-{5-[2′-methyl-2-(trifluoromethyl)biphenyl-4-yl]-1,2,4-oxadiazol-3-yl}phenyl)ethyl]glycine, hydrochloride salt], the values for the Ki on S1P3 (setting [4]) and at S1P1 [2] (setting [6]) were 1.06e-07 M and 1.02e-09 M, respectively. Moreover, the EC50 on S1P1 [1] is 7.17 nM.
`Cc1cc(-c2nc(-c3ccc([C@@H](C)N[C@H](C)C(=O)O)cc3)no2)ccc1-c1ccccc1C(F)(F)F` [Example 6, N-[(1R)-1-(4-{5-[2-methyl-2′-(trifluoromethyl)biphenyl-4-yl]-1,2,4-oxadiazol-3-yl}phenyl)ethyl]-D-alanine, hydrochloride salt]: the Ki at S1P3 (setting [3]) is over 2e-05 M; at S1P3 (setting [4]) it was over 2e-05 M; at S1P1 [2] (setting [5]) it was 9.92e-10 M; at S1P1 [2] (setting [6]), 2.18e-09 M. This compound came in with an EC50 at S1P1 [1] of 7.57 nM.
As to `COCc1cc(-c2nc(-c3ccc(C(C)N(C)CC(=O)O)cc3)no2)ccc1-c1ccccc1C` (stereo not drawn) [Example 15, N-[1-(4-{5-[2-(methoxymethyl)-2′-methylbiphenyl-4-yl]-1,2,4-oxadiazol-3-yl}phenyl)ethyl]-N-methylglycine, hydrochloride salt], the Ki turned out to be 5.68e-07 M at S1P3 (setting [4]) and 1.98e-09 M on S1P1 [2] (setting [6]). In addition, on S1P1 [1], a half-maximal effect (EC50) was put at 89.3 nM.
Take `Cc1ccccc1-c1ccc(-c2nc(-c3ccc(CCN[C@H](C)C(=O)O)cc3)no2)cc1C(F)(F)F` [Example 93]: the figures for the inhibition constant Ki at S1P3 (setting [4]) and at S1P1 [2] (setting [6]) were 4.67e-06 M and 1.22e-08 M, respectively. Moreover, a half-maximal response at S1P1 [1] (EC50) required 28.6 nM.
On the same counts, the results for `Cc1ccccc1-c1ccc(-c2nc(-c3cccc(CNC4(C(=O)O)CCC4)c3)no2)cc1C(F)(F)F` [Example 80] are 3.51e-08 M, 3.18e-10 M and 1.22 nM.
Turning to `COCc1cc(-c2nc(-c3ccc(CNC(C)(C)C(=O)O)c(F)c3)no2)ccc1-c1ccccc1C` [Example 16, N-(2-fluoro-4-{5-[2-(methoxymethyl)-2′-methylbiphenyl-4-yl]-1,2,4-oxadiazol-3-yl}benzyl)-2-methylalanine, hydrochloride salt], the Ki at S1P3 (setting [4]) stood at 7.2e-07 M; on S1P1 [2] (setting [6]), 1.23e-09 M. Also, the EC50 on S1P1 [1] came out at 8.43 nM.
The like results for `Cc1ccccc1-c1ccc(-c2nc(-c3ccc([C@H](C)N[C@H](C)C(=O)O)cc3)no2)cc1C(F)(F)F` (racemic) [Example 27, N-[(1S)-1-(4-{5-[2′-methyl-2-(trifluoromethyl)biphenyl-4-yl]-1,2,4-oxadiazol-3-yl}phenyl)ethyl]-D-alanine, hydrochloride salt and N-[(1R)-1-(4-{5-[2′-methyl-2-(trifluoromethyl)biphenyl-4-yl]-1,2,4-oxadiazol-3-yl}phenyl)ethyl]-L-alanine, hydrochloride salt] were, in that order, 1.33e-06 M, 2.21e-09 M and 7.84 nM.
For `Cc1cc(-c2nc(-c3ccc([C@@H](C)NCC(=O)O)cc3)no2)ccc1-c1ccccc1C(F)F` [Example 7, N-[(1R)-1-(4-{5-[2′-(difluoromethyl)-2-methylbiphenyl-4-yl]-1,2,4-oxadiazol-3-yl}phenyl)ethyl]glycine, hydrochloride salt], the Ki was over 2e-05 M on S1P3 (setting [3]), 5.24e-06 M at S1P3 (setting [4]), 3.7e-10 M on S1P1 [2] (setting [5]) and 1.64e-09 M at S1P1 [2] (setting [6]). Also, it took 17.9 nM to reach a half-maximal effect on S1P1 [1] (EC50).
With `Cc1ccccc1-c1ccc(-c2nc(-c3ccc([C@@H](C)N[C@@H](C)C(=O)O)cc3)no2)cc1C(F)(F)F` [Example 19, N-[(1R)-1-(4-{5-[2′-methyl-2-(trifluoromethyl)biphenyl-4-yl]-1,2,4-oxadiazol-3-yl}phenyl)ethyl]-L-alanine, hydrochloride salt], the Ki on S1P3 (setting [4]) came out at 2.56e-06 M; on S1P1 [2] (setting [6]) it was 3.98e-09 M. Also, the response at S1P1 [1] was half-maximal at 45.6 nM (EC50).
Consider `CCC(NCc1ccc(-c2noc(-c3ccc(-c4ccccc4C)c(C(F)(F)F)c3)n2)cc1)C(=O)O` (stereo not drawn) [Example 58], for which the figures for the Ki at S1P3 (setting [4]) and at S1P1 [2] (setting [6]) were 5.22e-06 M and 3.39e-09 M, respectively. Also, at S1P1 [1], a half-maximal response (EC50) required 4.87 nM.
On the same counts, the results for `Cc1ccccc1-c1ccc(-c2nc(-c3ccc(CN(C)[C@@H](C)C(=O)O)cc3)no2)cc1C(F)(F)F` [Example 70] are 7.53e-07 M, 2.98e-09 M and 18.8 nM.
Consider `Cc1ccccc1-c1ccc(-c2nc(-c3ccc(CN(C)[C@H](CO)C(=O)O)cc3)no2)cc1C(F)(F)F` [Example 72], for which the Ki on S1P3 (setting [4]) stood at 2.66e-06 M; on S1P1 [2] (setting [6]), 3.94e-09 M. Also, the EC50 on S1P1 [1] came to 31.9 nM.
